From patent US7442706B2, “Methods for treating sarcopenia with a growth hormone secretagogue” (priority 2006, dated 2008)
Entries after “also recorded” stand apart in the source; their conditions may differ.

Columns and labels:
Format in all cases: in vivo, human
[1] = Body water (TBW by deuterium dilution, ECW by bromide dilution, ICW by difference); conditions: 12 months; expressed per kg FFM
Method: Body Water. Total body water (TBW) was measured using the deuterium oxide (D2O) dilution technique ((8) and extracellular water (ECW) by bromide dilution (10). Intracellular water (ICW) was assessed as the difference between TBW and ECW. To determine the relative relationships of total-, extra- and intra-cellular water, each component (in kg) was expressed per kg of FFM at each time point.

[2] = T-score for total appendicular skeletal mass TASM/ht^2 (sarcopenia index)
Method: The primary outcome measures were the effects of increased GH and IGF-I on AVF and FFM; additional outcomes included body weight, fat mass, body water compartments, 24-h GH secretory dynamics, insulin sensitivity, quality of life and physical performance. Because gender and height influence total muscle mass, an index of relative muscle mass was calculated: total ASM from DXA was divided by height squared in meters (TASM (kg)/ht^2). To put changes in FFM in a clinical perspective, a t-score was computed for each individual, relating the TASM/ht^2 to those of gender-specific young adults (12). In accordance with Baumgartner et al., sarcopenia was defined as ≦2 SD below young, gender-specific reference populations (13; 14).

[3] = system: IGF-I; assay: Serum total IGF-I levels (Immulite 2000) in the 2-year placebo-controlled trial; conditions: for IGF-I levels after withdrawal of MK-677 or switch to placebo: after crossover to placebo in year 2 or 3 and 6 months after withdrawal
Method: Sixty-five healthy men and women (±HRT) ages 60-81 years were enrolled in a 2-year study of MK-677 (25 mg p.o. daily) or placebo. In addition to GH and IGF-I, the primary endpoints were fat-free mass (FFM), by 4-compartment model and DXA, and abdominal visceral fat (AVF) by CT. Secondary endpoints included isokinetic strength, function and quality of life (QoL); all endpoints were assessed at baseline and every 6 months, with frequent monitoring for adverse effects. This NIH-funded study was approved by the General Clinical Research Center (GCRC) and the University of Virginia Institutional Review Boards. All subjects gave written informed consent. A two-year, double-blind, placebo-controlled modified crossover trial of once-daily administration of an oral GH secretogogue (MK-677, 25 mg) to healthy older adults was performed. During the first year, subjects were randomized to MK-677 or placebo treatment. In each of 3 groups (23 men, 25 women on hormone replacement therapy (HRT) and 17 women not on HRT), ⅔ received MK-677 and ⅓ received placebo. At the end of year 1, the subjects who received placebo were switched to MK-677 treatment (N= 2/0 in year 2); subjects who received MK-677 for the first year were randomized to continue MK-677 (N=20) or to placebo (N=19). Assays and Insulin Sensitivity. Plasma glucose was measured on a Beckman analyzer and insulin and total IGF-I were measured in the GCRC Core Laboratory on an Immulite 2000 (Diagnostic Products Corporation, Los Angeles, Calif.). Additional safety laboratory tests were performed by standard methods in the UVA Clinical Laboratories. Fasting insulin and glucose were used to estimate insulin sensitivity by the Quicki method (4). The primary outcome data for the 6- and 12-month changes in FFM and AVF as well as for IGF-I and GH were analyzed via repeated measures ANCOVA. The FFM and AVF data were analyzed on the same scale as they were measured, while the IGF-I and GH data were transformed to the natural logarithmic scale before conducting the statistical analyses so that the variance and normality assumptions of the linear model were not violated. Since the FFM and AVF data were analyzed on the same scale as initially measured, the 6- and 12-month changes are reported as a difference between arithmetic means; changes in IGF-I and GH data analyzed on the natural algorithmic scale are reported as a ratio of geometric means.

[4] = Isokinetic muscle strength (Cybex II), knee and shoulder flexion and extension; conditions: 12 months
Method: Isokinetic Muscle Strength. Concentric force during flexion and extension of the knee and shoulder were determined using an isokinetic dynamometer Cybex II (CSM, Inc., Boston, Mass.). (11) Six repetitions of maximal effort over 90 degrees at 60 degrees/second were performed with the mean of the last 5 repetitions computed by proprietary software. Total work (Newton metres) was calculated by multiplying the mean per repetition by 5. Correction for Height and Gender. All strength and function measurements were analyzed per kg of skeletal muscle (ASM). Baseline arm ASM and leg ASM were used for shoulder and knee strength, respectively; baseline TASM (sum of arms and legs) was used for the function tests.

[5] = Function tests and quality of life questionnaires; conditions: year 1
Method: Quality of Life Assessments. Subjects completed 4 questionnaires to assess quality of life and general well-being: the 20-item Short Form Health Survey (SF-20); Beck Depression Inventory (BDI); Pittsburgh Sleep Quality Index (PSQI); and the Body Cathexis Scale (BCS).
Function. Function tests included walking 30 meters as quickly as possible, walking as far as possible in 6 minutes, descending and ascending 4 flights of stairs and rising and sitting 5 times from an armless chair with an 18″ seat height.
Correction for Height and Gender. All strength and function measurements were analyzed per kg of skeletal muscle (ASM). Baseline arm ASM and leg ASM were used for shoulder and knee strength, respectively; baseline TASM (sum of arms and legs) was used for the function tests.
With regard to the quality of life data, a Factor Analysis of the different scales of the questionnaires was performed to create an overall well-being factor (16). Initially, study subjects were used as their own internal controls and assessed if there was change over time in overall well being. Using the hierarchical linear modeling (HLM), a growth curve analysis was conducted, testing within-person linear and curvilinear change in overall well being over time.

CC(C)(N)C(=O)N[C@H](COCc1ccccc1)C(=O)N1CCC2(CC1)CN(S(C)(=O)=O)c1ccccc12.CS(=O)(=O)O [MK-677, N-[1(R)-[(1,2-dihydro-1-methanesulfonylspiro[3H-indole-3,4′-piperidin]-1′-yl)carbonyl]-2-(phenylmethyloxy)ethyl]-2-amino-2-methylpropanamide methanesulfonate]
changes in TBW, ECW or ICW vs. placebo [1]: no significant changes
T-scores for TASM/ht^2 vs. placebo ([2]; 12 months): significantly increased
subjects with a decrease in t-score (TASM/ht^2) ([2]; end of year 1, 25 mg p.o. daily): 7 of 43
IGF-I levels after withdrawal of MK-677 or switch to placebo ([3]; listed as Mk-677, methanesulfonate): fell to baseline levels
IGF-I levels after withdrawal of MK-677 or switch to placebo ([3]; methanesulfonate): returned to pre-treatment levels
fold increase in IGF-I levels ([3]; at 6 and 12 months, 25 mg p.o. daily, N=43): 1.5 fold
IGF-I levels relative to normal range for young adults aged 21-25 (116-358 μg/L) ([3]; first year, 25 mg p.o. daily, methanesulfonate): levels in the young adult normal range; also recorded: increased into the normal range for young adults
shoulder flexion total work vs. placebo [4]: trend for prevention of this decline
total work in knee extension or flexion or in shoulder extension, between groups [4]: no change
function or QoL [5]: did not result in changes
